Test results reported in US9511134B2, “Inducing immune responses to influenza virus using polypeptide and nucleic acid compositions” (priority 2006, dated 2016).

Assays:
Assay in all cases: biochemical
Assay type in all cases: binding
DRB1*0401 = molecular target: T1, DRB1*0401 (Homo sapiens, UniProt P01903+P01911, A100K/A169T/F76Y/I96L/K127E/L162R/M171V/N62H/P40V/Q125Y/R42H/S133A/S149N/S66Y/V115G/V209L/W38E); conditions: read-out: IC50 nM to purified HLA DRB1*0401
T1 construct: made in house; host or cells: EBV-transformed homozygous human B cell lines, transfected fibroblasts or single-allele 721.221 transfectants

DRB1*0101 = molecular target: T2, DRB1*0101 (Homo sapiens, UniProt P01903+P01911, A100R/D57E/F55L/F60I/F76Y/I96L/L162R/M171V/P40L/Q125E/R42F/V115G/Y59C); conditions: IC50 nM to purified HLA DRB1*0101
T2 construct: made in house; host or cells: EBV-transformed homozygous human B cell lines, transfected fibroblasts or single-allele 721.221 transfectants

DRB1*1501 = molecular target: T3, DRB1*1501 (Homo sapiens, UniProt P01903+P01911); conditions: read-out: IC50 nM to purified HLA DRB1*1501
T3 construct: made in house; host or cells: EBV-transformed homozygous human B cell lines, transfected fibroblasts or single-allele 721.221 transfectants

DRB1*1302 = DRB1*1302 (Homo sapiens, UniProt P01903+P01911, A100E/A169T/K41T/L162R/M171V/P40S/Q125H/Q178H/Q39Y/Q99D/R42S/S66N/T262R/V115G/W38E/Y61H); conditions: read-out: IC50 nM to purified HLA DRB1*1302
Chain of DRB1*1302 (P01903 26-254 limits assumed, other chains not shown): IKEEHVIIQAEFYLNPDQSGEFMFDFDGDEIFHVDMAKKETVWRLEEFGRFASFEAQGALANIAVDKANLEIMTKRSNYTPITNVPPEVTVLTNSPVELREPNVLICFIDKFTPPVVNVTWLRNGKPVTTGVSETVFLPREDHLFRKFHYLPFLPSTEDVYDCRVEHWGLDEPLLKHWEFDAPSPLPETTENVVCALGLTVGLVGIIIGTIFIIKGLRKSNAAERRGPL

## CC[C@H](C)[C@H](NC(=O)CNC(=O)[C@@H](NC(=O)[C@@H](N)CCSC)[C@@H](C)CC)C(=O)N[C@@H](CC(C)C)C(=O)N1CCC[C@H]1C(=O)N[C@@H](CC(=O)O)C(=O)N[C@@H](CCSC)C(=O)N[C@H](C(=O)N1CCC[C@H]1C(=O)N[C@@H](CO)C(=O)N[C@H](C(=O)N[C@@H](CCC(=O)O)C(=O)N[C@@H](CCSC)C(=O)N[C@@H](CO)C(=O)O)[C@@H](C)O)[C@@H](C)O [Flu.PB2.463]
DRB1*0401
  IC50: 31 nM

## CC[C@H](C)[C@H](NC(=O)CNC(=O)[C@H](CC(N)=O)NC(=O)[C@H](Cc1ccc(O)cc1)NC(=O)[C@H](CCCCN)NC(=O)[C@H](CC(C)C)NC(=O)[C@@H](NC(=O)[C@H](C)NC(=O)[C@@H](N)C(C)C)C(C)C)C(=O)N[C@H](C(=O)N[C@H](C(=O)N[C@@H](CC(=O)O)C(=O)N[C@H](C(=O)N[C@H](C(=O)N[C@@H](CCCCN)C(=O)N[C@@H](CO)C(=O)N[C@@H](Cc1c[nH]c2ccccc12)C(=O)O)[C@@H](C)CC)[C@@H](C)O)[C@@H](C)O)[C@@H](C)CC [Flu.NA.183]
DRB1*0101
  IC50: 3390 nM
DRB1*0401
  IC50: 319 nM
DRB1*1501
  IC50: 19 nM

## CC[C@H](C)[C@H](NC(=O)[C@H](Cc1ccc(O)cc1)NC(=O)[C@@H](NC(=O)[C@@H](NC(=O)[C@@H]1CCCN1)[C@@H](C)O)[C@@H](C)O)C(=O)N[C@@H](CO)C(=O)N[C@H](C(=O)NCC(=O)N[C@H](C(=O)N[C@@H](CO)C(=O)N[C@H](C(=O)N[C@@H](CC(C)C)C(=O)N[C@@H](CC(N)=O)C(=O)N[C@@H](CCC(N)=O)C(=O)N[C@@H](CCCNC(=N)N)C(=O)N[C@@H](CC(C)C)C(=O)O)[C@@H](C)O)[C@@H](C)O)C(C)C [Flu.HA.210]
DRB1*1302
  IC50: 957 nM
DRB1*0101
  IC50: 190 nM
DRB1*0401
  IC50: 59 nM

## CC(C)C[C@H](NC(=O)[C@H](CCCCN)NC(=O)[C@@H](NC(=O)[C@H](CO)NC(=O)[C@H](C)NC(=O)[C@@H](NC(=O)[C@H](C)NC(=O)[C@H](CCCCN)NC(=O)[C@H](CCC(=O)O)NC(=O)[C@@H](NC(=O)[C@H](CC(C)C)NC(=O)[C@H](Cc1ccccc1)NC(=O)[C@H](CC(N)=O)NC(=O)[C@@H](NC(=O)[C@@H](N)CC(N)=O)[C@@H](C)O)[C@@H](C)O)C(C)C)C(C)C)C(=O)N[C@@H](C)C(=O)O [Flu.NA.51]
DRB1*1501
  IC50: 47 nM

## CC[C@H](C)[C@H](NC(=O)CNC(=O)[C@H](CCCNC(=N)N)NC(=O)[C@H](CCC(N)=O)NC(=O)[C@H](CO)NC(=O)[C@@H](NC(=O)[C@H](CC(N)=O)NC(=O)[C@H](CC(C)C)NC(=O)[C@@H](NC(=O)[C@H](CO)NC(=O)[C@@H](N)CCCNC(=N)N)[C@@H](C)CC)[C@@H](C)O)C(=O)N[C@@H](CC(C)C)C(=O)N[C@@H](CCC(=O)O)C(=O)N[C@@H](CC(=O)O)C(=O)N[C@@H](CCC(=O)O)C(=O)O [Flu.PB1.675]
DRB1*1302
  IC50: 71 nM
DRB1*0101
  IC50: 94 nM

## CC[C@H](C)[C@H](NC(=O)[C@@H](NC(=O)[C@H](CCC(=O)O)NC(=O)[C@H](CCSC)NC(=O)[C@@H](N)[C@@H](C)O)C(C)C)C(=O)N[C@@H](CCC(N)=O)C(=O)N[C@@H](CCC(N)=O)C(=O)N[C@H](C(=O)N[C@@H](CCCNC(=N)N)C(=O)N[C@H](C(=O)N[C@@H](CC(=O)O)C(=O)N[C@@H](CCCCN)C(=O)N[C@@H](CC(C)C)C(=O)N[C@H](C(=O)N[C@@H](CCC(N)=O)C(=O)O)[C@@H](C)O)C(C)C)[C@@H](C)O [Flu.PB1.113]
DRB1*1302
  IC50: 180 nM

## CC[C@H](C)[C@H](NC(=O)[C@H](CCC(=O)O)NC(=O)[C@H](CCSC)NC(=O)[C@H](CCC(=O)O)NC(=O)[C@H](CCC(=O)O)NC(=O)[C@@H](N)CCCCN)C(=O)N[C@H](C(=O)N[C@H](C(=O)N[C@@H](Cc1c[nH]cn1)C(=O)N[C@@H](Cc1ccccc1)C(=O)N[C@@H](CCC(N)=O)C(=O)N[C@@H](CCCNC(=N)N)C(=O)N[C@@H](CCCCN)C(=O)N[C@@H](CCCNC(=N)N)C(=O)N[C@@H](CCCNC(=N)N)C(=O)O)[C@@H](C)O)[C@@H](C)O [Flu.PB1.179]
DRB1*0101
  IC50: 1400 nM

## CC[C@H](C)[C@H](NC(=O)[C@H](CC(C)C)NC(=O)[C@@H](NC(=O)[C@H](CCC(=O)O)NC(=O)[C@H](CC(C)C)NC(=O)[C@H](CCCNC(=N)N)NC(=O)[C@H](CC(=O)O)NC(=O)[C@H](Cc1ccccc1)NC(=O)[C@@H](NC(=O)[C@@H](NC(=O)[C@H](CO)NC(=O)[C@H](Cc1ccccc1)NC(=O)[C@@H](N)CC(N)=O)C(C)C)[C@@H](C)CC)[C@@H](C)O)C(=O)N[C@@H](CC(C)C)C(=O)N[C@@H](CC(C)C)C(=O)O [Flu.NS1.136]
DRB1*0101
  IC50: 17 nM
DRB1*1501
  IC50: 6930 nM

## CC(C)C[C@H](NC(=O)CNC(=O)[C@@H](NC(=O)[C@H](C)NC(=O)[C@H](CC(C)C)NC(=O)[C@@H](NC(=O)[C@H](CC(C)C)NC(=O)[C@H](CCCNC(=N)N)NC(=O)[C@@H](N)CC(N)=O)C(C)C)[C@@H](C)O)C(=O)N[C@@H](CCCNC(=N)N)C(=O)N[C@@H](CC(N)=O)C(=O)N[C@@H](CO)C(=O)N1CCC[C@H]1C(=O)N[C@@H](CCC(N)=O)C(=O)N[C@@H](CCCNC(=N)N)C(=O)O [Flu.HA.325]
DRB1*0101
  IC50: 69 nM

## CC[C@H](C)[C@H](NC(=O)[C@H](C)NC(=O)[C@H](CC(=O)O)NC(=O)[C@H](CC(N)=O)NC(=O)[C@@H]1CCCN1C(=O)[C@H](CCCCN)NC(=O)[C@H](CC(C)C)NC(=O)[C@@H](NC(=O)[C@@H](NC(=O)[C@H](Cc1c[nH]c2ccccc12)NC(=O)[C@H](Cc1ccccc1)NC(=O)[C@H](Cc1ccccc1)NC(=O)[C@H](CCC(=O)O)NC(=O)[C@H](CCSC)NC(=O)[C@@H](N)CCCNC(=N)N)[C@@H](C)O)[C@@H](C)CC)C(=O)O [Flu.HA.241]
DRB1*0101
  IC50: 62 nM

## CSCC[C@H](NC(=O)[C@H](CO)NC(=O)[C@H](Cc1ccccc1)NC(=O)[C@H](CC(N)=O)NC(=O)[C@H](C)NC(=O)[C@@H](N)C(C)C)C(=O)N[C@@H](CCC(=O)O)C(=O)N[C@@H](CC(C)C)C(=O)N1CCC[C@H]1C(=O)N[C@@H](CO)C(=O)N[C@@H](Cc1ccccc1)C(=O)NCC(=O)N[C@H](C(=O)N[C@@H](CO)C(=O)NCC(=O)O)C(C)C [Flu.PB1.505]
DRB1*0101
  IC50: 20 nM
DRB1*0401
  IC50: 17 nM

## CC[C@H](C)[C@H](NC(=O)[C@@H](NC(=O)[C@H](CCSC)NC(=O)[C@H](CC(=O)O)NC(=O)[C@@H](NC(=O)[C@H](CC(C)C)NC(=O)[C@H](Cc1ccc(O)cc1)NC(=O)[C@H](CCCNC(=N)N)NC(=O)[C@H](CO)NC(=O)[C@H](C)N)[C@@H](C)O)[C@@H](C)O)C(=O)N[C@@H](CCC(=O)O)C(=O)N[C@@H](CCC(=O)O)C(=O)N[C@@H](CCSC)C(=O)N[C@@H](CO)C(=O)N[C@@H](CCCNC(=N)N)C(=O)O [Flu.NS1.89]
DRB1*0101
  IC50: 6030 nM
DRB1*0401
  IC50: 67 nM

## CC[C@H](C)[C@H](NC(=O)[C@@H](NC(=O)[C@@H](N)CC(=O)O)C(C)C)C(=O)N[C@@H](CCSC)C(=O)N[C@@H](CCC(=O)O)C(=O)N[C@H](C(=O)N[C@H](C(=O)N[C@@H](Cc1ccccc1)C(=O)N1CCC[C@H]1C(=O)N[C@@H](CC(N)=O)C(=O)N[C@@H](CCC(=O)O)C(=O)N[C@H](C(=O)NCC(=O)N[C@@H](C)C(=O)N[C@@H](CCCNC(=N)N)C(=O)O)C(C)C)C(C)C)C(C)C [Flu.PB2.164]
DRB1*0401
  IC50: 1100 nM

## CC[C@H](C)[C@H](NC(=O)[C@H](C)NC(=O)[C@H](CC(=O)O)NC(=O)[C@H](CC(N)=O)NC(=O)[C@@H]1CCCN1C(=O)[C@H](CCCCN)NC(=O)[C@H](CC(C)C)NC(=O)[C@@H](NC(=O)[C@@H](NC(=O)[C@@H](N)Cc1c[nH]c2ccccc12)[C@@H](C)O)[C@@H](C)CC)C(=O)N[C@@H](CC(N)=O)C(=O)N[C@@H](Cc1ccccc1)C(=O)N[C@@H](CCC(=O)O)C(=O)N[C@@H](CO)C(=O)N[C@@H](CC(N)=O)C(=O)O [Flu.HA.246]
DRB1*1302
  IC50: 31 nM

## CSCC[C@H](NC(=O)[C@H](CC(C)C)NC(=O)[C@H](CCC(=O)O)NC(=O)[C@@H](N)Cc1c[nH]c2ccccc12)C(=O)N[C@@H](CC(=O)O)C(=O)N[C@@H](CCC(=O)O)C(=O)N[C@@H](CC(=O)O)C(=O)N[C@@H](Cc1ccc(O)cc1)C(=O)N[C@@H](CCC(N)=O)C(=O)NCC(=O)N[C@@H](CCCNC(=N)N)C(=O)N[C@@H](CC(C)C)C(=O)N[C@@H](CS)C(=O)N[C@@H](CC(N)=O)C(=O)N1CCC[C@H]1C(=O)O [Flu.PB1.616]
DRB1*0401
  IC50: 480 nM

## CC(C)C[C@H](NC(=O)[C@H](Cc1c[nH]cn1)NC(=O)[C@H](CO)NC(=O)[C@@H](N)CCCNC(=N)N)C(=O)N[C@@H](CCCNC(=N)N)C(=O)N[C@@H](CC(N)=O)C(=O)N[C@@H](CC(=O)O)C(=O)N[C@H](C(=O)N[C@@H](CC(=O)O)C(=O)N[C@H](C(=O)N[C@H](C(=O)N[C@@H](CC(N)=O)C(=O)N[C@@H](Cc1ccccc1)C(=O)N[C@H](C(=O)N[C@@H](CO)C(=O)O)C(C)C)C(C)C)C(C)C)[C@@H](C)O [Flu.PA.511]
DRB1*0401
  IC50: 200 nM

## CC[C@H](C)[C@H](NC(=O)[C@H](CCCCN)NC(=O)[C@@H](N)Cc1c[nH]cn1)C(=O)N[C@@H](Cc1ccccc1)C(=O)N[C@@H](CCCCN)C(=O)N[C@@H](CCSC)C(=O)N[C@@H](CCC(=O)O)C(=O)N[C@@H](CCCCN)C(=O)NCC(=O)N[C@@H](CCCCN)C(=O)N[C@H](C(=O)N[C@H](C(=O)N[C@@H](CCCCN)C(=O)N[C@@H](CO)C(=O)N[C@H](C(=O)N[C@@H](CCC(=O)O)C(=O)N[C@@H](CC(C)C)C(=O)O)C(C)C)C(C)C)C(C)C [Flu.NA.233]
DRB1*0101
  IC50: 64 nM

## CC[C@H](C)[C@H](NC(=O)[C@H](CCC(=O)O)NC(=O)[C@H](CCC(N)=O)NC(=O)[C@H](CCC(=O)O)NC(=O)[C@@H](NC(=O)[C@H](CCC(=O)O)NC(=O)[C@H](Cc1ccccc1)NC(=O)[C@@H](N)CC(C)C)C(C)C)C(=O)N[C@@H](CCCNC(=N)N)C(=O)N[C@H](C(=O)N[C@@H](Cc1ccccc1)C(=O)N[C@@H](CO)C(=O)N[C@@H](Cc1ccccc1)C(=O)N[C@@H](CCC(N)=O)C(=O)N[C@@H](CC(C)C)C(=O)O)[C@@H](C)O [Flu.NS2.182]
DRB1*0401
  IC50: 8800 nM
